In US20240246964A1 (Arbutus Biopharma Corporation, priority 2021, published 2024):

Experiments:
[1] = molecular target: PD-L1 His protein / PD-1 Fc protein (Homo sapiens (Human), UniProt Q9NZQ7); experiment: HTRF Assay (PD-1/PD-L1 interaction); assay type: binding; details: PD-L1 His 6 nM, PD-1 Fc 6 nM
human PD-L1 = human PD-L1 (Homo sapiens (Human), UniProt Q9NZQ7); experiment: T cell activation luciferase reporter cell culture system (T Cell Activation Assay); assay type: cell-based; details: luciferase reporter assay; PD-L1 aAPC/CHO-K1 cells with PD-1 effector Jurkat T cells
Sequence of human PD-L1 (Q9NZQ7 19-290): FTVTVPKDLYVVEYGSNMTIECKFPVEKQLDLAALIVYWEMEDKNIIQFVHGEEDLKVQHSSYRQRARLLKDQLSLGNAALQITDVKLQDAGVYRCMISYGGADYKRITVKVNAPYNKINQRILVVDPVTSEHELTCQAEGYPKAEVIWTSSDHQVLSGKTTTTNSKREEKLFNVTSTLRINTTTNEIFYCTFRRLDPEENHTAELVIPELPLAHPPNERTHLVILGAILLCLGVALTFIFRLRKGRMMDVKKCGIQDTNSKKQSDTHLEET

Sequence of PD-L1 His protein / PD-1 Fc protein (Q9NZQ7 19-238): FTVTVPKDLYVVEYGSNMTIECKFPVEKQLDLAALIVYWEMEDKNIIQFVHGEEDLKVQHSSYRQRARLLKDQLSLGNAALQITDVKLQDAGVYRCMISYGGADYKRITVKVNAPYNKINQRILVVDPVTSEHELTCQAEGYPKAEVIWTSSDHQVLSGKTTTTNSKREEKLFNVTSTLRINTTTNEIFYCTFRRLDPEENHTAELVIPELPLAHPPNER

Structure (SMILES) | IC50 [1] [nM] | EC50 (human PD-L1) [nM]
COc1cc(-c2nccc(-c3cccc(NC(=O)c4cn(C)c(=O)n(C)c4=O)c3Cl)c2Cl)ccc1CN1CC2(CNC(=O)C2)C1 [Example 658, N-(2-Chloro-3-(3-chloro-2-(3-methoxy-4-((7-oxo-2,6-diazaspiro[3.4]octan-2-yl)methyl)phenyl)pyridin-4-yl)phenyl)-1,3-dimethyl-2,4-dioxo-1,2,3,4-tetrahydropyrimidine-5-carboxamide] | 0.25 | 492
COc1nc(-c2cccc(-c3ccnc(-c4ccc(CN5CC6(C5)CN(C(C)=O)C6)c(OC(F)F)c4)c3Cl)c2Cl)ccc1CN1CC2(CNC(=O)C2)C1 [Example 662, 2-((6-(3-(2-(4-((6-Acetyl-2,6-diazaspiro[3.3]heptan-2-yl)methyl)-3-(difluoromethoxy)phenyl)-3-chloropyridin-4-yl)-2-chlorophenyl)-2-methoxypyridin-3-yl)methyl)-2,6-diazaspiro[3.4]octan-7-one] | 0.74 | 18.5
COc1nc(-c2cccc(-c3ccnc(-c4ccc(CNC5CCN(C(C)=O)CC5)c(OC(F)F)c4)c3Cl)c2Cl)ccc1CN1CC2(CNC(=O)C2)C1 [Example 665, 2-((6-(3-(2-(4-(((1-Acetylpiperidin-4-yl)amino)methyl)-3-(difluoromethoxy)phenyl)-3-chloropyridin-4-yl)-2-chlorophenyl)-2-methoxypyridin-3-yl)methyl)-2,6-diazaspiro[3.4]octan-7-one] | 0.6 | 46.3
COc1cc(-c2nccc(-c3nccc(-c4ccc(CN5CC6(CNC(=O)C6)C5)c(OC)n4)c3Cl)c2Cl)ccc1CN1CC2(CNC(=O)C2)C1 [Example 669, 2-(4-(3′,3″-Dichloro-6-methoxy-5-((7-oxo-2,6-diazaspiro[3.4]octan-2-yl)methyl)-[2,4′:2′,4″-terpyridin]-2″-yl)-2-methoxybenzyl)-2,6-diazaspiro[3.4]octan-7-one] | 0.34 | 296
COc1cc(-c2nccc(-c3cccc(NC(=O)c4ccc(CNC[C@@H]5CCC(=O)N5)cn4)c3Cl)c2Cl)ccc1CNC[C@@H]1CCC(=O)N1 [Example 675, N-(2-Chloro-3-(3-chloro-2-(3-methoxy-4-(((((S)-5-oxopyrrolidin-2-yl)methyl)amino)methyl)phenyl)pyridin-4-yl)phenyl)-5-(((((S)-5-oxopyrrolidin-2-yl)methyl)amino)methyl)picolinamide] | 0.26 | 26.9
COc1cc(-c2nccc(-c3cccc(NC(=O)c4ccc(CNCCO)cn4)c3Cl)c2Cl)ccc1CNCCO [Example 676, N-(2-Chloro-3-(3-chloro-2-(4-(((2-hydroxyethyl)amino)methyl)-3-methoxyphenyl)pyridin-4-yl)phenyl)-5-(((2-hydroxyethyl)amino)methyl)picolinamide] | 0.1 | 37.3
COc1cc(-c2nccc(-c3cccc(NC(=O)c4ccc(CN5CC6(C5)CN(C(C)=O)C6)cn4)c3Cl)c2Cl)ccc1CN1CC2(C1)CN(C(C)=O)C2 [Example 677, 5-((6-Acetyl-2,6-diazaspiro[3.3]heptan-2-yl)methyl)-N-(3-(2-(4-((6-acetyl-2,6-diazaspiro[3.3]heptan-2-yl)methyl)-3-methoxyphenyl)-3-chloropyridin-4-yl)-2-chlorophenyl)picolinamide] | 0.04 | 1210
COc1cc(-c2nccc(-c3cccc(NC(=O)c4ccc(CNC[C@H](C)O)cn4)c3Cl)c2Cl)ccc1CNC[C@H](C)O [Example 678, N-(2-Chloro-3-(3-chloro-2-(4-((((S)-2-hydroxypropyl)amino)methyl)-3-methoxyphenyl)pyridin-4-yl)phenyl)-5-((((S)-2-hydroxypropyl)amino)methyl)picolinamide] | 0.02 | 37
COCCC(=O)N1CC2(CN(Cc3ccc(-c4nccc(-c5cccc(-c6ccc(CN7CC8(C7)CN(C(=O)CCOC)C8)c(OC)n6)c5Cl)c4Cl)cc3OC)C2)C1 [Example 679, 1-(6-((6-(2-Chloro-3-(3-chloro-2-(3-methoxy-4-((6-(3-methoxypropanoyl)-2,6-diazaspiro[3.3]heptan-2-yl)methyl)phenyl)pyridin-4-yl)phenyl)-2-methoxypyridin-3-yl)methyl)-2,6-diazaspiro[3.3]heptan-2-yl)-3-methoxypropan-1-one] | 0.16 | 30.5
COc1nc(-c2cccc(-c3ccnc(-c4ccc(CN5CC6(CNC(=O)C6)C5)c(OC(F)F)c4)c3Cl)c2Cl)ccc1CNC1CCOCC1 [Example 683, 2-(4-(3-Chloro-4-(2-chloro-3-(6-methoxy-5-(((tetrahydro-2H-pyran-4-yl)amino)methyl)pyridin-2-yl)phenyl)pyridin-2-yl)-2-(difluoromethoxy)benzyl)-2,6-diazaspiro[3.4]octan-7-one] | 0.29 | 25.9
COc1nc(-c2cccc(-c3ccnc(-c4ccc(CN5CC6(CNC(=O)C6)C5)c(OC(F)F)c4)c3Cl)c2Cl)ccc1CNC1CCN(C(C)=O)CC1 [Example 684, 2-(4-(4-(3-(5-(((1-Acetylpiperidin-4-yl)amino)methyl)-6-methoxypyridin-2-yl)-2-chlorophenyl)-3-chloropyridin-2-yl)-2-(difluoromethoxy)benzyl)-2,6-diazaspiro[3.4]octan-7-one] | 1.8 | 34.9
COc1nc(-c2cccc(-c3ccnc(-c4ccc(CNC5CCOCC5)c(OC(F)F)c4)c3Cl)c2Cl)ccc1CN1CC2(CNC(=O)C2)C1 [Example 685, 2-((6-(2-Chloro-3-(3-chloro-2-(3-(difluoromethoxy)-4-(((tetrahydro-2H-pyran-4-yl)amino)methyl)phenyl)pyridin-4-yl)phenyl)-2-methoxypyridin-3-yl)methyl)-2,6-diazaspiro[3.4]octan-7-one] | 4.22 | 51.7
COc1nc(-c2ccnc(-c3cccc4c3CC[C@@H]4Oc3nc(OC)c(CNC[C@@H]4CCC(=O)N4)cc3C(F)(F)F)c2Cl)ccc1CNC1CCOCC1 [Example 686, (S)-5-((((6-(((S)-4-(3′-chloro-6-methoxy-5-(((tetrahydro-2H-pyran-4-yl)amino)methyl)-[2,4′-bipyridin]-2′-yl)-2,3-dihydro-1H-inden-1-yl)oxy)-2-methoxy-5-(trifluoromethyl)pyridin-3-yl)methyl)amino)methyl)pyrrolidin-2-one] | 14.8 | 11.1
COCC(=O)N1CC2(CN(Cc3ccc(-c4cccc(-c5ccnc(-c6ccc(CN7CC8(CNC(=O)C8)C7)c(OC)c6)c5Cl)c4Cl)nc3OC)C2)C1 [Example 687, 2-(4-(3-Chloro-4-(2-chloro-3-(6-methoxy-5-((6-(2-methoxyacetyl)-2,6-diazaspiro[3.3]heptan-2-yl)methyl)pyridin-2-yl)phenyl)pyridin-2-yl)-2-methoxybenzyl)-2,6-diazaspiro[3.4]octan-7-one] | 0.08 | 26.3
COc1nc(-c2cccc(-c3ccnc(-c4ccc(CN5CC6(CNC(=O)C6)C5)c(OC(F)F)c4)c3Cl)c2Cl)ccc1CN1CC2(C1)CN(C(C)=O)C2 [Example 688, 2-(4-(4-(3-(5-((6-Acetyl-2,6-diazaspiro[3.3]heptan-2-yl)methyl)-6-methoxypyridin-2-yl)-2-chlorophenyl)-3-chloropyridin-2-yl)-2-(difluoromethoxy)benzyl)-2,6-diazaspiro[3.4]octan-7-one] | 1.46 | 17
COc1nc(-c2cccc(-c3ccnc(-c4ccc(CNC5CCOCC5)c(OC(F)F)c4)c3Cl)c2Cl)ccc1CN1CC2(C1)CN(C(C)=O)C2 [Example 689, 1-(6-((6-(2-Chloro-3-(3-chloro-2-(3-(difluoromethoxy)-4-(((tetrahydro-2H-pyran-4-yl)amino)methyl)phenyl)pyridin-4-yl)phenyl)-2-methoxypyridin-3-yl)methyl)-2,6-diazaspiro[3.3]heptan-2-yl)ethan-1-one] | 3.33 | 37.4
COc1cc(-c2nccc(-c3cccc(-c4ccc(CN5CCC(O)CC5)c(OC)n4)c3Cl)c2Cl)ccc1CN1CC2(CCN(C(C)=O)C2)C1 [Example 693, 1-(2-(4-(3-Chloro-4-(2-chloro-3-(5-((4-hydroxypiperidin-1-yl)methyl)-6-methoxypyridin-2-yl)phenyl)pyridin-2-yl)-2-methoxybenzyl)-2,6-diazaspiro[3.4]octan-6-yl)ethan-1-one] | 0.71 | 26.1
COc1nc(-c2cccc(-c3ccnc(-c4cc5c(OC)nc(CN6CC(C)(O)C6)nn5c4)c3Cl)c2Cl)ccc1CNC[C@@H]1CCC(=O)N1 [Example 697, (S)-5-((((6-(2-Chloro-3-(3-chloro-2-(2-((3-hydroxy-3-methylazetidin-1-yl)methyl)-4-methoxypyrrolo[2,1-f][1,2,4]triazin-6-yl)pyridin-4-yl)phenyl)-2-methoxypyridin-3-yl)methyl)amino)methyl)pyrrolidin-2-one] | 6.26 | 120
COc1nc(-c2cccc(-c3ccnc(-c4cc(OC)c5nc(CN6CC7(COC7)C6)nn5c4)c3Cl)c2Cl)ccc1CNC1CCN(C(C)=O)CC1 [Example 698, 1-(4-(((6-(3-(2-(2-((2-Oxa-6-azaspiro[3.3]heptan-6-yl)methyl)-8-methoxy-[1,2,4]triazolo[1,5-a]pyridin-6-yl)-3-chloropyridin-4-yl)-2-chlorophenyl)-2-methoxypyridin-3-yl)methyl)amino)piperidin-1-yl)ethan-1-one] | 0.14 | 261
COc1cc(-c2nccc(-c3cccc(NC(=O)c4ccc(CNCCO)cn4)c3C)c2Cl)ccc1CNC1CCOCC1 [Example 703, N-(3-(3-Chloro-2-(3-methoxy-4-(((tetrahydro-2H-pyran-4-yl)amino)methyl)phenyl)pyridin-4-yl)-2-methylphenyl)-5-(((2-hydroxyethyl)amino)methyl)picolinamide] | 0.14 | 146
